Consider eight molecules from patent US20140107143A1, “QUATERNARY OPIOID CARBOXAMIDES” (Rensselaer Polytechnic Institute, priority 2007, published 2014).

Like-named read-outs stand apart in the source and are kept apart here.

The target of data set [1] is T1, human κ opioid receptor (Homo sapiens, UniProt P41145). Kind of data set: Opioid receptor binding assay, [3H]U69,593 (κ). Conditions: for K: δ / K: μ: ratio of Ki values.
In data set [2] the target is T2, human μ opioid receptor (Homo sapiens, UniProt P35372). The data set can be described thus: Opioid receptor binding assay, [3H]DAMGO (μ).
The target of data set [3] is T3, human δ opioid receptor (Homo sapiens, UniProt P41143).
Data set [4] deals with morphine-induced antinociception (hot plate). The data set can be described thus: Hot plate antinociception test. It counts as in vivo, mice. As to the method:
Antinociception to acute thermal stimuli was assessed using a commercially available hot plate apparatus (Columbus Instruments, Columbus, Ohio). The hot plate test is purported to be a supraspinal assay of nociception. The hot plate procedure involves placing each mouse on a heated surface and activating a timer. Mice were placed individually on a hot plate (25.4 cm×25.4 cm surrounded by an acrylic box to prevent the animal from escaping); surface temperature=55° C.) and the response latency to lick either hind paw was recorded. The maximum response latency (MRL) was set to 60 seconds to avoid potential thermal injury associated with longer exposure times. The mouse is removed from the heated surface when it either licks a hind paw in response to the heat or after 60 seconds has elapsed. The latency to respond is recorded and the mouse is returned to its home cage.
Mice (n=10/group) were first tested to determine a baseline response. […] Mice were then administered different doses of an opioid antagonist (IP or PO, 60 minutes prior to testing on the hot plate test). […] All results are compared to the saline-morphine treatment group mean response latency.

Data set [5] has as its system morphine-induced antinociception (tail flick). The data set can be described thus: Tail flick antinociception test. It is filed as in vivo, mice. As to conditions: for effect on response to morphine, tail flick: oral. How it is done:
Antinociception to acute thermal stimuli was assessed using a commercially available tail flick apparatus (Columbus Instruments, Columbus, Ohio). The tail flick test is purported to be primarily a […] reflexive response assay. In this standard model, mice are gently restrained and their tail is placed over a thermal beam. Once the beam is turned on (instant on; 9.3 watts), the time required to reflexively flick the tail is recorded. The maximum response latency (MRL) was set to 10 seconds to avoid potential thermal injury associated with longer exposure times. If there is no response after 10 seconds, mice are removed and the maximum response latency (MRL; 10 s) is recorded.
Mice (n=10/group) were first tested in the tail flick test to determine a baseline response. […] The mice were administered different doses of an opioid antagonist (IP or PO, 60 minutes prior to testing in the tail flick test). […] All results are compared to the saline-morphine treatment group mean response latency.

Data set [6] concerns the target T1, human κ opioid receptor. The data set can be described thus: [35S]GTPγS binding assay, kappa (compound alone / with U50,488). It is filed as biochemical. Also on record: expressed in transfected cells. The source says: Part 4. […] Binding was initiated by the addition of the membranes.
(GTPγS is a poorly hydrolysed GTP analogue; its binding reports G protein activation.)

Data set [7] has as its system morphine's blockade of PGE2-induced diarrhea. Kind of data set: PGE2 model of gut motility. It counts as in vivo, mice. As to the method: To assess the effects of novel, peripherally acting opioid antagonists, we used a PGE2 (a prostaglandin) model of gut motility. PGE2 induces diarrhea within 15 minutes of an intraperitoneal (IP) injection (0.1 mg/kg) in mice.
Mice (n=10/group) were given either an IP injection or oral (PO) administration (via gavage) of a novel opioid antagonist (0-3 mg/kg, IP; 0-30 mg/kg, PO) and placed in a Plexiglas pie cage (Braintree Scientific, Braintree, Mass.). Each pie cage holds up to 10 mice and is 21.5 cm in diameter and 7.5 cm in height. Individual chambers are 5 cm (base) and 9 cm (length). […] 30 minutes later mice were treated with PGE2 (0.1 mg/kg, IP) and again returned to the pie cage. During the final observation, the presence or absence of diarrhea was recorded 15 minutes following PGE2 administration. Mice were only tested once. Saline-saline (10 mL/kg, IP) and saline-morphine were the positive control groups and all results were compared to the saline-morphine treatment group. Data represent the percent of mice with PGE2-induced diarrhea at the time of the final observation.

Data set [8] is described as follows: PK evaluation in rats (plasma, LC-MS/MS). It is filed as in vivo. As to conditions: oral administration, FIG. 4. How it is done:
Animals were dosed with the example compound and blood samples were collected for 2 hours using the following method. Rats were briefly anesthetized with 1-2% isoflurane and blood samples (approximately […] of whole blood) from a lateral tail vein were collected into tubes containing EDTA. The tubes were centrifuged at 10K×g for 2 minutes to separate plasma. Plasma was pipetted into microcentrifuge vials and stored at −80° C. until plasma levels were determined by liquid chromatography-mass spectrometry/mass spectrometry (LC-MS/MS) (modification of Baranczewski et al., 2006). The lower limit of quantitation (LOQ) for these studies was 1.0 ng/mL and the coefficient of variation for the assay was <4.4%. The mean concentration of the example compound in plasma was calculated for each time point. […]
A bioanalytical assay was developed and qualified for measurement of the example compound in rat plasma. […] The intra-day accuracy and precision were evaluated by analysis of each 80 ng/mL, 40 ng/mL, and 8 ng/mL assay control (n=5 at each concentration) on the same day. Accuracy was calculated as a percentage ratio of measured concentration to nominal concentration and precision was expressed as the coefficient of variation. […] accuracy and precision were evaluated for each 80 ng/mL, 40 ng/mL, and 8 ng/mL assay control over 10 different runs (n=26 for each control sample). […]

Data set [9] deals with T2, human μ opioid receptor. Kind of data set: [35S]GTPγS binding assay, mu (compound alone / with DAMGO).
Protocol: In a final volume of 0.5 mL, 12 different concentrations of each test compound were incubated with 15 μg (κ), 10 μg (δ) or 7.5 μg (μ) of CHO cell membranes that stably expressed either the human κ or μ opioid receptor. The assay buffer consisted of 50 mM Tris-HCl, pH 7.4, 3 mM MgCl2, 0.2 mM EGTA, 3 μM GDP, and 100 mM NaCl. The final concentration of [35S]GTPγS was 0.080 nM. […] Binding was initiated by the addition of the membranes. […] Data are the mean Emax and EC50 values±S.E.M. from at least three separate experiments, performed in triplicate.
For another data set, the system named is antinociception. As to conditions: cited from earlier work; for duration of action: 1 mg/kg ip in mice.
The subject of a further data set is κ opioid receptors. Conditions: cited from earlier work.
A further data set concerns μ opioid receptors. Conditions: cited from earlier work.
In data set [10] the target is T3, human δ opioid receptor. The data set can be described thus: biochemical.
[11] abbreviates: read-out: [3H]U69,593 (K) Ki, CHO membranes, human receptor, mean ± SEM.
Where [12] appears, read: read-out: [3H]DAMGO (μ) Ki, CHO membranes, human receptor, mean ± SEM.

The Ki is the dissociation constant of the complex between target and ligand, obtained from inhibition or displacement. By melting point is commonly meant the temperature of the solid-liquid transition. Broadly, the Emax is the size of the effect at its maximum, as opposed to the concentration needed. As usually defined, the IC50 is the concentration that gives 50% inhibition.

T2 sequence (P35372 whole entry): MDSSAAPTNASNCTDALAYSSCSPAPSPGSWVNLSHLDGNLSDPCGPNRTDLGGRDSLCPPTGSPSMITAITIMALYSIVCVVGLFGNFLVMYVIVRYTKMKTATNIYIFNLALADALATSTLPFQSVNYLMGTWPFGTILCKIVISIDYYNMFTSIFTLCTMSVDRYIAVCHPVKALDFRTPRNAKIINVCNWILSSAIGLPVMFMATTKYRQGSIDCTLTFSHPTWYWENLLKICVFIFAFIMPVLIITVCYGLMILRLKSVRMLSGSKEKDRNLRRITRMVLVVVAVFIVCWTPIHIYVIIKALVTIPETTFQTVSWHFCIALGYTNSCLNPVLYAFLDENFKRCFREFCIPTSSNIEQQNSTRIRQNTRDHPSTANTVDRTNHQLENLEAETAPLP
T3 sequence (P41143 whole entry): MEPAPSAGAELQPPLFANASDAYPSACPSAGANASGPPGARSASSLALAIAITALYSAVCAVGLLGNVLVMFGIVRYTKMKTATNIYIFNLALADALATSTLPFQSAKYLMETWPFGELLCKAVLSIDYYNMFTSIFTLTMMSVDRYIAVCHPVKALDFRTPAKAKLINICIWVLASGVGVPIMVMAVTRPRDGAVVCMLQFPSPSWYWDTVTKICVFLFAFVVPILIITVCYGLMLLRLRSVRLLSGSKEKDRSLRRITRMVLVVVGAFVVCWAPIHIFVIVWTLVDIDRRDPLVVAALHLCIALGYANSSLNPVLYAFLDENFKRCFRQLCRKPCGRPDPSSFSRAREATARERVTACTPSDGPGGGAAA
T1 sequence (P41145 whole entry): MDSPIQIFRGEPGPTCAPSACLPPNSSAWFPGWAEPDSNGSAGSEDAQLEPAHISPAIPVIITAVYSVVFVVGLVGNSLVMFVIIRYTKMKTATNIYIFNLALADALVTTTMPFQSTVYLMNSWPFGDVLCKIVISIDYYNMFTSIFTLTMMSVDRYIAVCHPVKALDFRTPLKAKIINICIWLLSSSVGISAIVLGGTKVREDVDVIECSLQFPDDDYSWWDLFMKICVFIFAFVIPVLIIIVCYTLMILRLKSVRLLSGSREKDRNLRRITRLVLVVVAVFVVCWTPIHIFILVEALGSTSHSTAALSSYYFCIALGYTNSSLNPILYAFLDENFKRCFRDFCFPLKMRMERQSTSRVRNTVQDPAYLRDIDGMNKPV

Take `C[N+]1(CC2CC2)CC[C@]23c4c5ccc(O)c4O[C@H]2C(=O)CC[C@@]3(O)[C@H]1C5` (stereo partly shown) [Compound 2, Naltrexone Methiodide, reference compound]: the “K: δ” value on human κ opioid receptor [1] is 143. Also, the “K: μ” value at human κ opioid receptor [1] amounted to 0.32. The Ki on human κ opioid receptor [1] (setting [11]) was 6.3 ± 0.46 nM; at human μ opioid receptor [2] (setting [12]), 2 ± 0.27 nM.

`C[N+]1(CC2CC2)CC[C@]23c4c5ccc(C(N)=O)c4O[C@H]2C(=O)CC[C@@]3(O)[C@H]1C5` (stereo partly shown) [Compound 4, 3-Carboxamido-naltrexone methiodide] gave a melting point of 189 to 190 °C. For the same molecule, the “[3H]Naltrindole (δ) inhibition” value at human δ opioid receptor [3] (@ 10 μm) was 31% inh. @ 10 μm. At human κ opioid receptor [1], the “K: δ” value is on record as 143 and the “K: μ” value amounted to 0.18. For the same molecule, the Ki on human κ opioid receptor [1] (setting [11]) is 210 ± 22 nM.

Molecule `C[N+]1(CC2CC2)CC[C@]23CC(=O)CC[C@@]2(O)[C@H]1Cc1ccc(C(N)=O)c(O)c13` (stereo partly shown) [Compound 6, 3-Carboxamido-4-hydroxy-naltrexone methiodide] yielded a melting point of 197 to 198 °C. Further, the “blocking the analgesic effects of morphine, hot plate” value in data set [4] (mice, IP route, FIG. 3) is reported as “marginally effective”. In data set [4] (mice, IP, 3 mg/kg), the “change from the baseline morphine response, hot plate” value is 20-25%. Further, the “effect on the response to morphine, hot plate” value in data set [4] (mice, orally, doses up to 30 mg/kg) is listed as “no effect”. In data set [5] (mice, IP route), the “blocking the analgesic effects of morphine, tail flick” value is on record as “moderately effective”. Besides, the “blocking the effects of morphine, tail flick” value in data set [5] (mice, oral administration) was “much less effective”. Besides, in data set [5] (mice, 10 mg/kg), the “effect on response to morphine, tail flick” value is “did not affect the response to morphine”. Also, the “effect on response to morphine, tail flick” value in [5] (mice, maximum dose 30 mg/kg, FIG. 2) is on record as “only partially reverse”. Besides, the inhibition constant Ki on human δ opioid receptor [3] (read-out: [3H]Naltrindole (δ) Ki, CHO membranes, human receptor, mean ± SEM) is 280 ± 21 nM. In addition, the “K: μ” value on human κ opioid receptor [1] is 0.17. The inhibitory constant (Ki) on human κ opioid receptor [1] (setting [11]) was found to be 7.7 ± 0.9 nM. In addition, on human κ opioid receptor [6] (compound alone), the “agonist properties at the κ opioid receptor” value is on record as “did not display any agonist properties”. The Emax at human κ opioid receptor [6] (compound alone, Mean ± S.E, read-out: Kappa Cmpd. Alone Emax) turned out to be 3 ± 2.6%. The molecule also showed an IC50 at human κ opioid receptor [6] (with 100 nM U50,488, Mean ± S.E) of 7800 ± 530 nM. Further, the “activity in blocking PGE2-induced diarrhea” value in data set [7] (mice, doses of 1-10 mg/kg, both routes (IP, PO)) is “very good activity”. Moreover, the “reversal of the effects of morphine on PGE2-induced diarrhea” value in [7] (mice, each route, IP and PO, FIG. 1) was “dose-dependent reversal of the effects of morphine”. Moreover, in [8], the absorption entry was “low”. Also, on human μ opioid receptor [2] (setting [12]), the inhibitory constant (Ki) came out at 1.3 ± 0.13 nM. Further, the Emax at human μ opioid receptor [9] (read-out: Mu Cmpd. Alone Emax) is -0.28 ± 0.39%. On human μ opioid receptor [9] (read-out: Mu With DAMGO IC50, with 200 nM DAMGO, Mean ± S.E), the IC50 was 52 nM. In addition, the “Mu With DAMGO Imax” value on human μ opioid receptor [9] (with 200 nM DAMGO, Mean ± S.E) is recorded as 96 ± 1.2%.

The molecule `CC1C2Cc3ccc(O)cc3C1(C)CC[N+]2(C)CC1CC1` (stereo not shown) [Compound 8, Cyclazocine methiodide] had a melting point of 165 to 168 °C. Besides, on human κ opioid receptor [1], the “K: δ” value was determined as 95 and the “K: μ” value is listed as 0.2.

On to `C[C@H]1C2Cc3ccc(C(N)=O)cc3[C@@]1(C)CCN2CC1CC1` [Compound 8-CAC, 8-carboxamidocyclazocine], for which the duration of action in the data set on antinociception is 15 h. Also, the antinociception activity result in the data set on antinociception (in vivo, mice) is on record as “high antinociception activity”. For the same molecule, the “affinity for κ opioid receptors” value with κ opioid receptors is given as “high affinity”. Moreover, the “affinity for μ opioid receptors” value in the data set with μ opioid receptors is on record as “high affinity”.

In turn, `CC1C2Cc3ccc(C(N)=O)cc3C1(C)CC[N+]2(C)CC1CC1` (stereo not shown) [Compound 10, 8-Carboxamido-cyclazocine methiodide] came in with a melting point of 237 to 238 °C. This molecule came in with a Ki on human δ opioid receptor [10] of 360 ± 6.5 nM. Also, on human κ opioid receptor [1], the Ki turned out to be 17 ± 1.2 nM, the “K: δ” value was determined as 21 and the “K: μ” value is listed as 0.082. The Ki on human μ opioid receptor [2] worked out at 1.4 ± 0.19 nM.

For `C[N@+]1(CC2CC2)CC[C@]23CCCC[C@@]2(O)[C@H]1Cc1ccc(C(N)=O)c(O)c13.[Cl-]` [Compound 14, (17R)-17-(Cyclopropylmethyl)-4,14-dihydroxy-17-methylmorphinan-17-ium-3-carboxamide chloride], in [4] (hot plate test), the “central activity (hot plate)” value is “poor central activity” and the “dose at which a statistical difference from baseline is first seen, hot plate” value is listed as 30 mg/kg. Moreover, the “hot plate dose relative to dose required in the PGE2 test” value in [4] (hot plate vs PGE2 test) was in the range of 3 to 10 times higher dose. In data set [5] (even at 30 mg/kg), the “difference from baseline, tail flick” value is reported as “no statistical difference from baseline”. For the same molecule, in data set [7] (IP administration at 3 mg/kg), the “effect on morphine's ability to block PGE2-induced diarrhea” value is “reduces morphine's ability to block PGE2-induced diarrhea”.

As for `C[C@H]1[C@H]2Cc3ccc(O)cc3[C@]1(C)CCN2CC1CC1` [cyclazocine], the duration of action with antinociception is 2 h.
